Laboratory results reported in publication PMC9270327 (Communications Biology, 2022).
“And” between values parts separate entries of the source, which are not always exact repeats. Equal values may be shown once. Where a name gives a salt, the structure may show the parent alone. Read-outs that look alike come from different tables or passages of the source.

Columns and labels:
[1] = system: lentiviral pseudoparticles carrying SARS-CoV-2 Alpha (B.1.1.7) spike, Caco-2 cells; type: cell-based; details: Fig. 5b, […]
[2] = system: SARS-CoV-2 Wuhan-Hu-1, Caco-2 cells; type: cell-based
[3] = target: TMPRSS2 (Homo sapiens, UniProt O15393); test: Plasma stability: residual TMPRSS2 inhibition after incubation in human plasma
Method: The activity of the compounds against the recombinant human enzymes was determined in enzyme inhibition assays. […] The measurements were performed on a Tecan infinite® M1000 and the fluorescence intensity was measured by exciting the AMC fluorophore at 380 nm wavelength and recording emission at 460 nm wavelength. […] Fluorescence intensities and absorption were measured every 2 min for 2 h or as endpoint after 2 h. […] To determine the IC50 values, the concentration-response data were plotted with the program GraphPad prism version 8.4.2 (San Diego, California) and a nonlinear regression fit with the equation [Inhibitor] vs. normalized response was applied. The inhibitory constant Ki was calculated from the IC50 values using the Cheng–Prusoff equation (Ki = IC50/[S]/KM) for competitive reversible inhibitors[66].
The stability of the inhibitors was measured according to a modified procedure from ref. [67]. […] At indicated timepoints, 100 µL samples were taken and mixed with 200 µL of ethanol to precipitate proteins. […] The supernatant was aspirated and analyzed using analytical HPLC. The residual inhibitory constants Ki after incubation was assessed by mixing serial dilutions of the inhibitor with recombinant TMPRSS2 as described above.
Shown are the means ± SD of n=1 experiment performed in triplicates.

[4] = system: lentiviral pseudoparticles carrying SARS-CoV-2 Beta (B.1.351) spike, Caco-2 cells; type: cell-based; details: for SARS-CoV-2 spike driven entry, Mean (0 nM = 100): Fig. 5c
[5] = system: lentiviral pseudoparticles carrying SARS-CoV-2 Wuhan-Hu-1 spike, Caco-2 cells; type: cell-based

Sequence of TMPRSS2 (O15393 whole entry): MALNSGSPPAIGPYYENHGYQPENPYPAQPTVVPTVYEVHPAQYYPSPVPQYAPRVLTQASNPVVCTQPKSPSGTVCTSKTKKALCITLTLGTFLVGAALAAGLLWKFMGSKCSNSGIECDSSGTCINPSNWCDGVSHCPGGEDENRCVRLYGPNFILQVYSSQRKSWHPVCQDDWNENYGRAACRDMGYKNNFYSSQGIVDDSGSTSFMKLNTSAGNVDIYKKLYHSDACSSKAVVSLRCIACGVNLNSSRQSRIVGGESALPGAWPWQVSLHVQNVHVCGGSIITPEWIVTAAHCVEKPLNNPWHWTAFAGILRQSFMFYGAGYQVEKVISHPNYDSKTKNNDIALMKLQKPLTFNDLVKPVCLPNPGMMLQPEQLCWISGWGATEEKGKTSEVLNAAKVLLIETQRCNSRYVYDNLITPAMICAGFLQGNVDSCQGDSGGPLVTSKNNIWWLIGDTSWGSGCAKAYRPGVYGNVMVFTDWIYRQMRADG

Structure (SMILES): CN(C)C(=O)COC(=O)Cc1ccc(OC(=O)c2ccc(NC(=N)N)cc2)cc1 [CM, camostat mesylate, reference compound]
- SARS-CoV-2 spike driven entry, Mean (0 nM = 100) ([1]; compound 10000 nM): 4.853
- SARS-CoV-2 spike driven entry, Mean (0 nM = 100) ([1]; compound 50000 nM): 1.159
- IC50 ([2]; read-out: IC50 SARS-CoV-2 Wuhan-Hu-1): 3620 nM
- IC50 ([2]; read-out: IC50 SARS-CoV-2 Wuhan-Hu-1 (text)): 3600 nM
- TMPRSS2 activity, Mean (0 nM = 100) ([3]; inhibitor 0.0167 nM, 0 min in plasma): 112.439
- TMPRSS2 activity, Mean (0 nM = 100) ([3]; inhibitor 0.0167 nM, 30 min in plasma): 99.4869
- TMPRSS2 activity, Mean (0 nM = 100) ([3]; inhibitor 0.0167 nM, 60 min in plasma): 94.1158
- TMPRSS2 activity, Mean (0 nM = 100) ([3]; inhibitor 0.0167 nM, 120 min in plasma): 100.839
- TMPRSS2 activity, Mean (0 nM = 100) ([3]; inhibitor 0.0167 nM, 24 h in plasma): 102.049
- TMPRSS2 activity, Mean (0 nM = 100) ([3]; inhibitor 0.0167 nM, 10 d in plasma): 98.7798
- TMPRSS2 activity, Mean (0 nM = 100) ([3]; inhibitor 0.0167 nM, positive ctrl): 95.8208
- TMPRSS2 activity, Mean (0 nM = 100) ([3]; inhibitor 0.167 nM, 0 min in plasma): 118.068
- TMPRSS2 activity, Mean (0 nM = 100) ([3]; inhibitor 0.167 nM, 30 min in plasma): 99.3363
- TMPRSS2 activity, Mean (0 nM = 100) ([3]; inhibitor 0.167 nM, 60 min in plasma): 90.9592
- TMPRSS2 activity, Mean (0 nM = 100) ([3]; inhibitor 0.167 nM, 120 min in plasma): 99.9584
- TMPRSS2 activity, Mean (0 nM = 100) ([3]; inhibitor 0.167 nM, 24 h in plasma): 103.994
- TMPRSS2 activity, Mean (0 nM = 100) ([3]; inhibitor 0.167 nM, 10 d in plasma): 99.2067
- TMPRSS2 activity, Mean (0 nM = 100) ([3]; inhibitor 0.167 nM, positive ctrl): 72.6812
- TMPRSS2 activity, Mean (0 nM = 100) ([3]; inhibitor 1.665 nM, 0 min in plasma): 103.981
- TMPRSS2 activity, Mean (0 nM = 100) ([3]; inhibitor 1.665 nM, 30 min in plasma): 95.5323
- TMPRSS2 activity, Mean (0 nM = 100) ([3]; inhibitor 1.665 nM, 60 min in plasma): 85.541
- TMPRSS2 activity, Mean (0 nM = 100) ([3]; inhibitor 1.665 nM, 120 min in plasma): 96.8319
- TMPRSS2 activity, Mean (0 nM = 100) ([3]; inhibitor 1.665 nM, 24 h in plasma): 101.166
- TMPRSS2 activity, Mean (0 nM = 100) ([3]; inhibitor 1.665 nM, 10 d in plasma): 96.8623
- TMPRSS2 activity, Mean (0 nM = 100) ([3]; inhibitor 1.665 nM, positive ctrl): 21.364
- TMPRSS2 activity, Mean (0 nM = 100) ([3]; inhibitor 16.65 nM, 0 min in plasma): 71.7511
- TMPRSS2 activity, Mean (0 nM = 100) ([3]; inhibitor 16.65 nM, 30 min in plasma): 65.1615
- TMPRSS2 activity, Mean (0 nM = 100) ([3]; inhibitor 16.65 nM, 60 min in plasma): 67.6129
- TMPRSS2 activity, Mean (0 nM = 100) ([3]; inhibitor 16.65 nM, 120 min in plasma): 74.7383
- TMPRSS2 activity, Mean (0 nM = 100) ([3]; inhibitor 16.65 nM, 24 h in plasma): 100.72
- TMPRSS2 activity, Mean (0 nM = 100) ([3]; inhibitor 16.65 nM, 10 d in plasma): 95.3646
- TMPRSS2 activity, Mean (0 nM = 100) ([3]; inhibitor 16.65 nM, positive ctrl): 5.9227
- TMPRSS2 activity, Mean (0 nM = 100) ([3]; inhibitor 166.5 nM, 0 min in plasma): 5.478
- TMPRSS2 activity, Mean (0 nM = 100) ([3]; inhibitor 166.5 nM, 30 min in plasma): 3.6809
- TMPRSS2 activity, Mean (0 nM = 100) ([3]; inhibitor 166.5 nM, 60 min in plasma): 3.225
- TMPRSS2 activity, Mean (0 nM = 100) ([3]; inhibitor 166.5 nM, 120 min in plasma): 7.418
- TMPRSS2 activity, Mean (0 nM = 100) ([3]; inhibitor 166.5 nM, 24 h in plasma): 28.8196
- TMPRSS2 activity, Mean (0 nM = 100) ([3]; inhibitor 166.5 nM, 10 d in plasma): 97.9296
- TMPRSS2 activity, Mean (0 nM = 100) ([3]; inhibitor 166.5 nM, positive ctrl): 2.192
- TMPRSS2 activity, Mean (0 nM = 100) ([3]; inhibitor 1665 nM, 0 min in plasma): 4.824
- TMPRSS2 activity, Mean (0 nM = 100) ([3]; inhibitor 1665 nM, 30 min in plasma): 0.6431
- TMPRSS2 activity, Mean (0 nM = 100) ([3]; inhibitor 1665 nM, 60 min in plasma): 1.811
- TMPRSS2 activity, Mean (0 nM = 100) ([3]; inhibitor 1665 nM, 120 min in plasma): 6.253
- TMPRSS2 activity, Mean (0 nM = 100) ([3]; inhibitor 1665 nM, 24 h in plasma): 5.605
- TMPRSS2 activity, Mean (0 nM = 100) ([3]; inhibitor 1665 nM, 10 d in plasma): 88.1928
- TMPRSS2 activity, Mean (0 nM = 100) ([3]; inhibitor 1665 nM, positive ctrl): 0.4038
- IC50 ([4]; Caco-2 cells, luciferase 2 days post transduction, read-out: IC50 pseudotyped lentivirus Beta): 156 nM
- SARS-CoV-2 spike driven entry, Mean (0 nM = 100) ([4]; compound 3.2 nM): 69.473
- SARS-CoV-2 spike driven entry, Mean (0 nM = 100) ([4]; compound 16 nM): 73.209
- SARS-CoV-2 spike driven entry, Mean (0 nM = 100) ([4]; compound 80 nM): 64.2815
- SARS-CoV-2 spike driven entry, Mean (0 nM = 100) ([4]; compound 400 nM): 45.014
- SARS-CoV-2 spike driven entry, Mean (0 nM = 100) ([4]; compound 2000 nM): 20.732
- SARS-CoV-2 spike driven entry, Mean (0 nM = 100) ([4]; compound 10000 nM): 4.9565
- SARS-CoV-2 spike driven entry, Mean (0 nM = 100) ([4]; compound 50000 nM): 3.2315
- SARS-CoV-2 spike driven entry, Mean (0 nM = 100) [5]: 90.0332
- IC50 ([5]; Caco-2 cells, luciferase 2 days post transduction, read-out: IC50 pseudotyped lentivirus Wuhan-Hu-1): 748 nM and ~748 nM
- SARS-CoV-2 spike driven entry, Mean (0 nM = 100) ([5]; Fig. 5a, compound 160 nM, […]): 75.4652
- SARS-CoV-2 spike driven entry, Mean (0 nM = 100) ([5]; Fig. 5a, compound 800 nM, […]): 52.9188
- SARS-CoV-2 spike driven entry, Mean (0 nM = 100) ([5]; Fig. 5a, compound 4000 nM, […]): 17.6822
- SARS-CoV-2 spike driven entry, Mean (0 nM = 100) ([5]; Fig. 5a, compound 20000 nM, […]): 3.857
- SARS-CoV-2 spike driven entry, Mean (0 nM = 100) ([5]; Fig. 5a, compound 100000 nM, […]): 2.478
